Reference: patent US11160807B1, “Methods, compositions and devices for treating cancer with illudofulvenes” (AF Chemicals, LLC, priority 2018, dated 2021)

Tests used:
[1] = tested on: XP-A, XP-B, XP-C, XP-D, XP-E, XP-F, CS-A, CS-B, ERCC1, ERCC5; experiment: DNA damage profile by DNA repair gene; type: cell-based; details: symbols not defined
[2] = tested on: Fibroblasts (normal)
[3] = tested on: T cell leukemias
[4] = tested on: Prostate carcinomas
[5] = tested on: B cell leukemias
[6] = tested on: Mechanism of Multi-drug Resistance; experiment: multidrug resistance: resistance by mechanism of multi-drug resistance
[7] = tested on: Lung carcinomas
[8] = tested on: 8392B Nontarget Cell Line; experiment: two hour toxicity: 2 hr exposure, concentration inhibiting 50% of DNA synthesis activity; type: cell-based; details: at 26,000 nM ([…] μM)
Method: (§1) In various embodiments of the invention, the MV522 cell line represents a “target” cell line. […] The two hour toxicity data represents the concentration of a given analog for which a two hour exposure will inhibit 50% of the DNA synthesis activity in a given cell line. The 48 hour exposure data represents the concentration at which a given analog with a 48 hour exposure will inhibit the growth or viability in a given cell line as defined by the standard Trypan Blue Exclusion assay.

[9] = tested on: Epidermoid
[10] = tested on: c-myc positive daughter line Myc/Rat1A (Myc/ER); experiment: role of c-myc in cytotoxicity, c-myc expression induced by 4-hydroxytamoxifen (4HOT); type: cell-based; details: FIG. 2
Text: The expression of c-myc in this cell line is under the control of a modified receptor that responds to 4-hydroxytamoxifen (4HOT).

[11] = tested on: MV522 cell line (a lung-derived adenocarcinoma cell line); experiment: tumor regression (FIG. 1); type: in vivo; details: MV522, FIG. 1
[12] = tested on: Ovarian
[13] = tested on: NIH3T3 MYC+ and NIH3T3 MYC-null; experiment: influence of c-myc expression on cytotoxicity, Cell Count (%); details: for effect of c-myc (MYC) expression on cellular sensitivity: FIG. 4A-4D, cisplatin data not shown
[14] = tested on: Breast carcinomas
[15] = tested on: Myeloid leukemias
[16] = tested on: MV522 Target Cell Line; experiment: 48 hour exposure, growth or viability by Trypan Blue Exclusion assay; type: cell-based; details: MV522, 48 h, read-out: Mean IC50 value, MV522 Target Cell Line, 48 hr exposure
Method: as §1

[17] = tested on: MCF7 (ER positive); experiment: cytotoxic IC50, 2 hour exposure; details: Homo sapiens, MCF7, 2 h, read-out: cytotoxic IC50 values, MCF7 (ER positive)
[18] = tested on: NCI DTP 60 cell line panel; experiment: NCI DTP 60 Cell Line screen: Growth Inhibition (GI50), Total Growth Inhibition (TGI), Lethal Concentration (LC50/LD); type: cell-based, human; details: mean over NCI DTP 60 cell line panel; for Mean LD50 cytotoxic: lethal concentration dose (cytotoxic effect); for GI50: growth inhibition; for Mean TGI cytostatic: total growth inhibition (cytostatic effect)
Method: In particular, an algorithm based on the obtained in vitro cell culture values (i.e. growth inhibition values (GI50), or the total growth inhibition (TGI), or the lethal concentration (LC50)) of cell lines (e.g., NCI60 cells) subjected to treatment with an illudofulvene, and gene expression is determined in these same cell lines (e.g., by microarray analysis, reverse transcriptase polymerase chain reaction (RT-PCR), quantitative real-time PCR (qPCR), or next generation sequencing). After normalization, genes with, e.g., a Pearson correlation coefficient greater than about 0.5 or below about −0.5 to one of the obtained in vitro cell culture values, can be classified as biomarkers of sensitivity or resistance, respectively. A probability or significance value can also be calculated for the correlation between the obtained in vitro cell culture values (i.e. growth inhibition values (GI50), or the total growth inhibition (TGI), or the lethal concentration (LC50)) and the normalized expression of a specific gene.
One can determine the growth inhibition (GI50), total growth inhibition (TGI), or lethal concentration (LC50) for a drug for each of the cell lines in the NCI DTP 60 cell line panel. One can use these 3 values to search for correlations against all gene expressions in all cell lines using the NCI's publicly available CELL MINER Software. Alternatively, one can down load for a specific gene its relative expression in each of the 60 cell lines using the NCI's publicly available COMPARE Software, and performs the expression for a specific gene.

## CC1=C(CO)C2=C(C)C3(CC3)[C@@](C)(O)C(=O)C2=C1 [Analog 002]
[1]; Gene XP-C
  DNA damage profile: 0
[1]; Gene XP-E
  DNA damage profile: 0
[2]
  Cytotoxicity? 2 hr incubation: No
  Cytotoxicity? 48 hr incubation: Yes
[3]
  Cytotoxicity? 2 hr incubation: No
  Cytotoxicity? 48 hr incubation: Yes
[4]
  Cytotoxicity? 2 hr incubation: Yes
  Cytotoxicity? 48 hr incubation: Yes
[5]
  Cytotoxicity? 2 hr incubation: No
  Cytotoxicity? 48 hr incubation: Yes
[6]; Mechanism: BRCA status
  Resistance to Analog 001/Analog 002: No
[6]; Mechanism: Bcl-2 expression
  Resistance to Analog 001/Analog 002: No
[6]; Mechanism: DNA repair
  Resistance to Analog 001/Analog 002: No
[6]; Mechanism: Gp170/MDR1
  Resistance to Analog 001/Analog 002: No
[6]; Mechanism: Gp180/MRP
  Resistance to Analog 001/Analog 002: No
[6]; Mechanism: MGMT expression
  Resistance to Analog 001/Analog 002: No
[6]; Mechanism: MVP/LRP (vault)
  Resistance to Analog 001/Analog 002: No
[6]; Mechanism: Microtubulin alteration
  Resistance to Analog 001/Analog 002: No
[6]; Mechanism: Myc expression
  Resistance to Analog 001/Analog 002: No
[6]; Mechanism: P21 status
  Resistance to Analog 001/Analog 002: No
[6]; Mechanism: P53 status
  Resistance to Analog 001/Analog 002: No
[6]; Mechanism: Thiol content/GST pi
  Resistance to Analog 001/Analog 002: No
[6]; Mechanism: Topoisomerase I
  Resistance to Analog 001/Analog 002: No
[6]; Mechanism: Topoisomerase II
  Resistance to Analog 001/Analog 002: No
[6]; multi-medicant resistance phenotype, Bcl-2 over expression, p53 and p21/WAF1 mutations
  dependence of activity on common resistance mechanisms: independent
[7]
  Cytotoxicity? 2 hr incubation: Yes
  Cytotoxicity? 48 hr incubation: Yes
[8]
  inhibitory effect on the nontarget 8392B cell line: no inhibitory effect
[9]
  Cytotoxicity? 2 hr incubation: Yes
  Cytotoxicity? 48 hr incubation: Yes
[10]
  sensitivity on expression of c-myc in the presence of 4HOT: become sensitive
[11]
  tumor regression: induce tumor regression
[12]
  Cytotoxicity? 2 hr incubation: Yes
  Cytotoxicity? 48 hr incubation: Yes
[13]
  effect of c-myc (MYC) expression on cellular sensitivity: become sensitive
[13]; NIH3T3 MYC+ compared to parental c-myc null NIH3T3, based on decrease in cell count, FIG. 3
  increase in sensitivity conferred by expression of cellular c-myc: greater than 10 fold
[14]
  Cytotoxicity? 2 hr incubation: Yes
  Cytotoxicity? 48 hr incubation: Yes
[15]
  Cytotoxicity? 2 hr incubation: Yes
  Cytotoxicity? 48 hr incubation: Yes

## CC1=C(COCCO)C2=C(C)C3(CC3)[C@@](C)(O)C(=O)C2=C1 [Analog 022]
[16]
  IC50: 680 ± 180 nM

## CC1=C(CCC(=O)Oc2ccc3c(c2)CCC2C3CC[C@]3(C)C(O)CCC23)C2=C(C)C3(CC3)[C@@](C)(O)C(=O)C2=C1 (stereo partly shown) [Analog 108]
[17]
  IC50: 14100 ± 2800 nM

## CC1=C2C(=CC(C)(C)[C@@H]2O)C(=O)[C@](C)(O)C12CC2 [Illudin M, illudin M, reference compound]
[18]
  Mean LD50 cytotoxic: 291 nM

## CCOCC1=C(C)C=C2C(=O)[C@](C)(O)C3(CC3)C(C)=C21 [Illudofulvene Analog 0016]
[18]
  GI50: 102 nM
  Mean LD50 cytotoxic: 4,270 nM
  Mean TGI cytostatic: 1,070 nM

## COC(=O)C1=C(C(=O)OC)C23C=C(C)C1C2=C(C)C1(CC1)[C@@](C)(O)C3=O (stereo partly shown) [Illudofulvene Analog 0142]
[18]
  GI50: 447 nM
  Mean LD50 cytotoxic: 53,700 nM
  Mean TGI cytostatic: 4,667 nM

## CC(=O)OCC1(C)C=C2C(=O)[C@](C)(O)C3(CC3)C(C)=C2C1O (stereo partly shown) [Illudofulvene Analog 0159]
[18]
  GI50: 117 nM
  Mean LD50 cytotoxic: 14,790 nM
  Mean TGI cytostatic: 2,090 nM

## CC[C@H](C)[C@H](NC(=O)[C@H]1CCCCN1C)C(=O)N(COC(=O)CC(C)C)[C@H](C[C@@H](OC(C)=O)c1nc(C(=O)N[C@@H](Cc2ccc(O)cc2)C[C@H](C)C(=O)O)cs1)C(C)C [Tubulysin A]
[18]
  Mean LD50 cytotoxic: >10,000 nM

## N.N.[Cl][Pt][Cl] [cisplatin]
[13]
  effect of c-myc (MYC) expression on cellular sensitivity: did not alter cellular sensitivity

## CO[C@@]12[C@H](COC(N)=O)C3=C(C(=O)C(C)=C(N)C3=O)N1C[C@@H]1N[C@@H]12 [mitomycin C]
[13]
  effect of c-myc (MYC) expression on cellular sensitivity: did not alter cellular sensitivity
[13]; listed as Mitomycin C
  effect of c-myc (MYC) expression on cellular sensitivity: not sensitive

## CC[C@@]1(O)C(=O)OCc2c1cc1n(c2=O)Cc2cc3c(CN(C)C)c(O)ccc3nc2-1 [topotecan]
[13]
  effect of c-myc (MYC) expression on cellular sensitivity: did not alter cellular sensitivity
[13]; listed as Topotecan
  effect of c-myc (MYC) expression on cellular sensitivity: not sensitive
